According to publication PMC11638703 (RSC Advances, 2024):
Like-named read-outs stand apart in the source and are kept apart here.

Experiments:
MCF-7 cells = assay: Cytotoxicity, MTT assay, MCF-7 cells; assay type: cell-based, human; conditions: from MCF-7 IC50
PIM-1 kinase [1] = target: T1, PIM-1 kinase (Homo sapiens, UniProt P11309); assay: PIM-1 kinase inhibitory assay; assay type: biochemical
HepG2 cells [2] = assay: Cytotoxicity, MTT assay, HepG2 cells; assay type: cell-based; conditions: for LLE (lipophilic efficiency): from HepG2 IC50
caspase 3 = assay: Caspase 3 level by ELISA in treated HepG2 cells; assay type: cell-based, human; conditions: HepG2 treated at IC50 dose, 48 h, control 4.01
THLE2 cells = assay: Cytotoxicity, MTT assay, normal THLE2 cells; assay type: cell-based
caspase 9 = assay: Caspase 9 level by ELISA in treated HepG2 cells; assay type: cell-based, human; conditions: HepG2 treated at IC50 dose
caspase 8 = assay: Caspase 8 level by ELISA in treated HepG2 cells; assay type: cell-based, human; conditions: HepG2 treated at IC50 dose, 48 h, control 55.01
HepG2 cells [3] = assay: Annexin V/PI staining flow cytometry; assay type: cell-based; conditions: HepG2, IC50 dose, 48 h
PIM-1 kinase [4] = target: T1, PIM-1 kinase; conditions: previously synthesized compound; ref [40]; cited from earlier work

T1 sequence (P11309 whole entry): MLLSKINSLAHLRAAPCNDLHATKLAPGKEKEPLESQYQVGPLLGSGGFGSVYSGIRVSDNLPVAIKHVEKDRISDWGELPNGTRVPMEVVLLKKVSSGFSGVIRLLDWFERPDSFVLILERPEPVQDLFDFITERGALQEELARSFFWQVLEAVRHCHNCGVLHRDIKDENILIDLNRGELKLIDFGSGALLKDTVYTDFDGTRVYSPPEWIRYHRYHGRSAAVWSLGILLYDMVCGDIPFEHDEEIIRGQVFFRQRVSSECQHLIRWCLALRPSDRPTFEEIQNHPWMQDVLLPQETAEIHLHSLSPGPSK

CCOC(=O)Cn1c(-c2ccc(Cl)cc2)cc(-c2ccc(O)c(OC)c2)c(C#N)c1=O [Compound 5, Ethyl 2-(6-(4-chlorophenyl)-3-cyano-4-(4-hydroxy-3-methoxyphenyl)-2-oxopyridin-1(2H)-yl)acetate]
LLE (lipophilic efficiency) (MCF-7 cells): 2.65 | % of PIM-1 inhibition (PIM-1 kinase [1]): 83.4 ± 2.3% | IC50 (PIM-1 kinase [1]): 0.0646 ± 0.0002 µM | LLE (lipophilic efficiency) (HepG2 cells [2]): 2.93

COc1cc(-c2cc(-c3ccc(Cl)cc3)n(CN(C)C)c(=O)c2C#N)ccc1O [Compound 8, 6-(4-Chlorophenyl)-1-((dimethylamino)methyl)-4-(4-hydroxy-3-methoxyphenyl)-2-oxo-1,2-dihydropyridine-3-carbonitrile]
LLE (lipophilic efficiency) (MCF-7 cells): 2.97 | LLE (lipophilic efficiency) (HepG2 cells [2]): 2.76

COc1cc(-c2cc(-c3ccc(Cl)cc3)n(CC(=O)NN)c(=O)c2C#N)ccc1O [Compound 9, 2-(6-(4-Chlorophenyl)-3-cyano-4-(4-hydroxy-3-methoxyphenyl)-2-oxopyridin-1(2H)-yl)acetohydrazide]
LLE (lipophilic efficiency) (MCF-7 cells): 5.41 | % of PIM-1 inhibition (PIM-1 kinase [1]): 98.8 ± 1.9% | IC50 (PIM-1 kinase [1]): 0.0084 ± 0.0002 µM | Concentration Caspase 3 (caspase 3): 9.8 ng/mL | percentage of cell growth (inhibition) (HepG2 cells [2]; HepG2, maximal concentration): 94% | LLE (lipophilic efficiency) (HepG2 cells [2]): 5.60 | maximum cell growth inhibition (THLE2 cells): 13% | selectivity for caspase-9 compared to caspase-3 and caspase-8 (caspase 9): ~2.6 fold | Concentration Caspase 9 (caspase 9; 48 h, ELISA, control 43.33): 112.6 ng/mL | Concentration Caspase 8 (caspase 8): 74.4 ng/mL | early apoptosis (HepG2 cells [3]): 15.2% | late apoptosis (HepG2 cells [3]): 37.5% | necrosis cell death (HepG2 cells [3]): failed to enhance necrosis cell death | total apoptotic cell death vs untreated control (HepG2 cells [3]): 175 times | total apoptosis (HepG2 cells [3]; untreated 0.30%): 52.7%

COc1cc(-c2cc(-c3ccc(Cl)cc3)n(CC(=O)n3nc(C)cc3C)c(=O)c2C#N)ccc1O [Compound 10, 6-(4-Chlorophenyl)-1-(2-(3,5-dimethyl-1H-pyrazol-1-yl)-2-oxoethyl)-4-(4-hydroxy-3-methoxyphenyl)-2-oxo-1,2-dihydropyridine-3-carbonitrile]
% of PIM-1 inhibition (PIM-1 kinase [1]): 87.6 ± 3.2% | IC50 (PIM-1 kinase [1]): 0.0346 ± 0.00012 µM

N#Cc1cnc2ncncc2c1 [Pyrido[2,3-d] pyrimidine-6-carbonitrile]
% of PIM-1 inhibition (PIM-1 kinase [4]): 97.8 ± 1.8%
